Test system: Elongator complex protein 1 (ELP1, also referred to as IKBKAP)
Assay: IKBKAP-HTRF assay (IKBKAP protein in lysates of FD patient-derived fibroblasts)
Type: cell-based, human
Details: 48 hours incubation, 7-point concentration curve
Method in brief: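 Sandwich HTRF with two labelled anti-IKAP antibodies (overnight, 4 °C) measured IKBKAP in lysates of FD patient fibroblasts. Cells were exposed to compound for 48 h at 37 °C (7-point curve, 3.16-fold steps, triplicates). EC2x is the dose doubling IKBKAP versus DMSO control; MFI is sample ΔF divided by vehicle ΔF.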

SMILES	EC2x for IKBKAP protein expression (concentration producing two times the amount of IKBKAP protein vs DMSO vehicle control)	MFI (maximum fold increase in IKBKAP protein abundance relative to the vehicle control)
C[C@H](N)C(F)(F)c1sc2c(NCc3cccs3)cc(Cl)nc2c1Cl [Compound 132, 2-[(2S)-2-amino-1,1-difluoropropyl]-3,5-dichloro-N-[(thiophen-2-yl)methyl]thieno[3,2-b]pyridin-7-amine]	**** (between >0.005 μM and ≤0.02 μM is indicated by four stars (****))	***** (>4.9 is indicated by five stars (*****))
Cc1c(C[C@@H](N)C(=O)Nc2ccc(C#N)cc2)sc2c(NCc3ccco3)cc(Cl)nc12 [Compound 133, 3-(5-chloro-7-{[(furan-2-yl)methyl]amino}-3-methylthieno[3,2-b]pyridin-2-yl)-N-(4-cyanophenyl)-D-alaninamide]	***** (≤0.005 μM is indicated by five stars (*****))	***** (>4.9 is indicated by five stars (*****))
Cc1c(C[C@@H](N)C(=O)Nc2ccccn2)sc2c(NCc3ccco3)cc(Cl)nc12 [Compound 134, 3-(5-chloro-7-{[(furan-2-yl)methyl]amino}-3-methylthieno[3,2-b]pyridin-2-yl)-N-pyridin-2-yl-D-alaninamide]	**** (between >0.005 μM and ≤0.02 μM is indicated by four stars (****))	***** (>4.9 is indicated by five stars (*****))
Cc1c(C[C@@H](N)C(=O)Nc2cnccn2)sc2c(NCc3ccco3)cc(Cl)nc12 [Compound 135, 3-(5-chloro-7-{[(furan-2-yl)methyl]amino}-3-methylthieno[3,2-b]pyridin-2-yl)-N-pyrazin-2-yl-D-alaninamide]	***** (≤0.005 μM is indicated by five stars (*****))	**** (between >3.9 and ≤4.9 is indicated by four stars (****))
COc1c(C[C@H](C)N)sc2c(NCc3ccco3)cc(Cl)nc12 [Compound 136, 2-[(2S)-2-aminopropyl]-5-chloro-N-[(furan-2-yl)methyl]-3-methoxythieno[3,2-b]pyridin-7-amine]	***** (≤0.005 μM is indicated by five stars (*****))	***** (>4.9 is indicated by five stars (*****))
COc1csc2c(NCc3ccco3)cc(Cl)nc12 [Compound 137, 5-chloro-N-[(furan-2-yl)methyl]-3-methoxythieno[3,2-b]pyridin-7-amine]	*** (between >0.02 μM and ≤0.5 μM is indicated by three stars (***))	***** (>4.9 is indicated by five stars (*****))
Oc1csc2c(NCc3cccs3)cc(Cl)nc12 [Compound 138, 5-chloro-7-{[(thiophen-2-yl)methyl]amino}thieno[3,2-b]pyridin-3-ol]	*** (between >0.02 μM and ≤0.5 μM is indicated by three stars (***))	** (between >1.9 and ≤2.9 is indicated by two stars (**))
C[C@H](N)Cc1sc2c(NCc3cccs3)cc(Cl)nc2c1OC(F)F [Compound 139, 2-[(2S)-2-aminopropyl]-5-chloro-3-(difluoromethoxy)-N-[(thiophen-2-yl)methyl]thieno[3,2-b]pyridin-7-amine]	***** (≤0.005 μM is indicated by five stars (*****))	**** (between >3.9 and ≤4.9 is indicated by four stars (****))
